Experiments:
SRA737 = compound: N#Cc1cnc(Nc2cc(NC[C@H]3CNCCO3)c(C(F)(F)F)cn2)cn1 [SRA737]; conditions: max 10 µM
Procedure, shortened: (§1)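 Plates with 1536 wells received cancer cell lines in 7.5 μl of DMEM/F12 or RPMI containing 10% FBS. After 24 hours at 37°C and 5% CO2, cells were dosed for 72 hours with final DMSO typically 0.2%, and viability was read by CellTiter-Glo 2.0 luminescence scaled between blank-well and DMSO-well means. The single-agent IC50 was taken from a logistic fit of the dose responses made with a non-linear mixed effects model, that logistic curve having two parameters.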

Paclitaxel = compound: CC(=O)O[C@H]1C(=O)[C@@]2(C)[C@H]([C@H](OC(=O)c3ccccc3)[C@]3(O)C[C@H](OC(=O)[C@H](O)[C@@H](NC(=O)c4ccccc4)c4ccccc4)C(C)=C1C3(C)C)[C@]1(OC(C)=O)CO[C@@H]1C[C@@H]2O [Paclitaxel]; conditions: max 3 µM
Procedure, shortened: as §1

Dasatinib = compound: CC1=C(C(=CC=C1)Cl)NC(=O)C2=CN=C(S2)NC3=CC(=NC(=N3)C)N4CCN(CC4)CCO [Dasatinib]; conditions: max 2 µM
Procedure, shortened: as §1

SG3199 = compound: CC1=CN2[C@@H](C1)C=NC3=CC(=C(C=C3C2=O)OC)OCCCCCOC4=C(C=C5C(=C4)N=C[C@@H]6CC(=CN6C5=O)C)OC [SG3199]; conditions: max 0.001 µM
Procedure, shortened: as §1

Gemcitabine = compound: Nc1ccn([C@@H]2O[C@H](CO)[C@@H](O)C2(F)F)c(=O)n1 [Gemcitabine]; conditions: max 0.3 µM
Procedure, shortened: as §1

AZD1390 = compound: CC(C)n1c(=O)n(C)c2cnc3cc(F)c(-c4ccc(OCCCN5CCCCC5)nc4)cc3c21 [AZD1390]; conditions: max 0.3 µM
Procedure, shortened: as §1

Venetoclax = compound: CC1(C)CCC(CN2CCN(c3ccc(C(=O)NS(=O)(=O)c4ccc(NCC5CCOCC5)c([N+](=O)[O-])c4)c(Oc4cnc5[nH]ccc5c4)c3)CC2)=C(c2ccc(Cl)cc2)C1 [Venetoclax]; conditions: max 1 µM
Procedure, shortened: as §1

AZD2811 = compound: CCN(CCO)CCCOc1ccc2c(Nc3cc(CC(=O)Nc4cccc(F)c4)[nH]n3)ncnc2c1 [AZD2811]; conditions: max 1 µM
Procedure, shortened: as §1

Prexasertib = compound: COc1cccc(OCCCN)c1-c1cc(Nc2cnc(C#N)cn2)n[nH]1 [Prexasertib]; conditions: max 1 µM
Procedure, shortened: as §1

Alisertib = compound: COc1cc(Nc2ncc3c(n2)-c2ccc(Cl)cc2C(c2c(F)cccc2OC)=NC3)ccc1C(=O)O [Alisertib]; conditions: max 10 µM
Procedure, shortened: as §1

AZD5991 = compound: Cc1c2c(nn1C)CSCc1cc(n(C)n1)CSc1cc(c3ccccc3c1)OCCCc1c(C(=O)O)n(C)c3c-2c(Cl)ccc13 [AZD5991]; conditions: max 1 µM
Procedure, shortened: as §1

Taselisib = compound: Cc1nc(-c2cn3c(n2)-c2ccc(-c4cnn(C(C)(C)C(N)=O)c4)cc2OCC3)n(C(C)C)n1 [Taselisib]; conditions: max 10 µM
Procedure, shortened: as §1

Olaparib = compound: O=C(c1cc(Cc2n[nH]c(=O)c3ccccc23)ccc1F)N1CCN(C(=O)C2CC2)CC1 [Olaparib]; conditions: max 10 µM
Procedure, shortened: as §1

AZD6738 = compound: C[C@@H]1COCCN1C2=NC(=NC(=C2)C3(CC3)[S@](=N)(=O)C)C4=C5C=CNC5=NC=C4 [AZD6738]; conditions: max 10 µM
Procedure, shortened: as §1

AZD5153 = compound: COc1nnc2ccc(N3CCC(c4ccc(OCCN5CCN(C)C(=O)[C@H]5C)cc4)CC3)nn12 [AZD5153]; conditions: max 1 µM
Procedure, shortened: as §1

AZD0156 = compound: CN(C)CCCOc1ccc(-c2ccc3ncc4c(c3c2)n(C2CCOCC2)c(=O)n4C)cn1 [AZD0156]; conditions: max 3 µM
Procedure, shortened: as §1

Trametinib = compound: CC(=O)Nc1cccc(-n2c(=O)n(C3CC3)c(=O)c3c(Nc4ccc(I)cc4F)n(C)c(=O)c(C)c32)c1 [Trametinib]; conditions: max 1 µM
Procedure, shortened: as §1

SN-38 = compound: CCc1c2c(nc3ccc(O)cc13)-c1cc3c(c(=O)n1C2)COC(=O)[C@]3(O)CC [SN-38]; conditions: max 0.3 µM
Procedure, shortened: as §1

Palbociclib = compound: CC(=O)c1c(C)c2cnc(Nc3ccc(N4CCNCC4)cn3)nc2n(C2CCCC2)c1=O [Palbociclib]; conditions: max 10 µM
Procedure, shortened: as §1

Crizotinib = compound: C[C@@H](Oc1cc(-c2cnn(C3CCNCC3)c2)cnc1N)c1c(Cl)ccc(F)c1Cl [Crizotinib]; conditions: max 10 µM
Procedure, shortened: as §1

Etoposide = compound: COc1cc([C@@H]2c3cc4c(cc3[C@@H](O[C@@H]3O[C@@H]5CO[C@@H](C)O[C@H]5[C@H](O)[C@H]3O)[C@H]3COC(=O)[C@H]23)OCO4)cc(OC)c1O [Etoposide]; conditions: max 10 µM
Procedure, shortened: as §1

AZD5363 = compound: C1CN(CCC1(C(=O)N[C@@H](CCO)C2=CC=C(C=C2)Cl)N)C3=NC=NC4=C3C=CN4 [AZD5363]; conditions: max 10 µM
Procedure, shortened: as §1

AZD7648 = compound: Cc1cc2ncnn2cc1Nc1ncc2c(n1)n(C1CCOCC1)c(=O)n2C [AZD7648]; conditions: max 10 µM
Procedure, shortened: as §1

Gefitinib = compound: COc1cc2ncnc(Nc3ccc(F)c(Cl)c3)c2cc1OCCCN1CCOCC1 [Gefitinib]; conditions: max 10 µM
Procedure, shortened: as §1

Lapatinib = compound: CS(=O)(=O)CCNCc1ccc(-c2ccc3ncnc(Nc4ccc(OCc5cccc(F)c5)c(Cl)c4)c3c2)o1 [Lapatinib]; conditions: max 10 µM
Procedure, shortened: as §1

Savolitinib = compound: C[C@@H](c1ccc2nccn2c1)n1nnc2ncc(-c3cnn(C)c3)nc21 [Savolitinib]; conditions: max 1 µM
Procedure, shortened: as §1

AZD4320 = compound: CN(CC[C@H](CSC1=CC=CC=C1)NC2=C(C=C(C=C2)S(=O)(=O)NC(=O)C3=CC=C(C=C3)N4CCC(CC4)[C@H](C5=CC=CC=C5C6=CC=C(C=C6)Cl)O)S(=O)(=O)C(F)(F)F)CCO [AZD4320]; conditions: max 1 µM
Procedure, shortened: as §1

Carboplatin = compound: C1CC(C1)(C(=O)[O-])C(=O)[O-].N.N.[Pt+2] [Carboplatin]; conditions: max 10 µM
Procedure, shortened: as §1

5-Fluorouracil = compound: O=c1[nH]cc(F)c(=O)[nH]1 [5-Fluorouracil]; conditions: max 20 µM
Procedure, shortened: as §1

MK-2206 = compound: NC1(c2ccc(-c3nc4ccn5c(=O)[nH]nc5c4cc3-c3ccccc3)cc2)CCC1 [MK-2206]; conditions: max 10 µM
Procedure, shortened: as §1

AZD1775 = compound: C=CCn1c(=O)c2cnc(Nc3ccc(N4CCN(C)CC4)cc3)nc2n1-c1cccc(C(C)(C)O)n1 [AZD1775]; conditions: max 3 µM
Procedure, shortened: as §1

[1] = compound: O=C(Nc1ccc2[nH]nc(-c3ccncc3)c2c1)[C@@H]1CCN(CC(=O)N2CCN(c3ccc(-c4ncccn4)cc3)CC2)C1; conditions: max 5 µM
Procedure, shortened: as §1

Selumetinib = compound: Cn1cnc2c(F)c(Nc3ccc(Br)cc3Cl)c(C(=O)NOCCO)cc21 [Selumetinib]; conditions: max 10 µM
Procedure, shortened: as §1

AZD8186 = compound: C[C@@H](Nc1cc(F)cc(F)c1)c1cc(C(=O)N(C)C)cc2c(=O)cc(N3CCOCC3)oc12 [AZD8186]
Procedure, shortened: as §1

Doxorubicin = compound: COc1cccc2c1C(=O)c1c(O)c3c(c(O)c1C2=O)C[C@@](O)(C(=O)CO)C[C@@H]3O[C@H]1C[C@H](N)[C@H](O)[C@H](C)O1 [Doxorubicin]; conditions: max 1 µM
Procedure, shortened: as §1

Capivasertib = compound: C1CN(CCC1(C(=O)N[C@@H](CCO)C2=CC=C(C=C2)Cl)N)C3=NC=NC4=C3C=CN4 [Capivasertib]; conditions: max 10 µM
Procedure, shortened: as §1

Cell Line	IC50, cell viability 72 h (SRA737) [nM]	IC50, cell viability 72 h (Paclitaxel) [nM]	IC50, cell viability 72 h (Dasatinib) [nM]	IC50, cell viability 72 h (SG3199) [nM]	IC50, cell viability 72 h (Gemcitabine) [nM]	IC50, cell viability 72 h (AZD1390) [nM]	IC50, cell viability 72 h (Venetoclax) [nM]	IC50, cell viability 72 h (AZD2811) [nM]	IC50, cell viability 72 h (Prexasertib) [nM]	IC50, cell viability 72 h (Alisertib) [nM]	IC50, cell viability 72 h (AZD5991) [nM]	IC50, cell viability 72 h (Taselisib) [nM]	IC50, cell viability 72 h (Olaparib) [nM]	IC50, cell viability 72 h (AZD6738) [nM]	IC50, cell viability 72 h (AZD5153) [nM]	IC50, cell viability 72 h (AZD0156) [nM]	IC50, cell viability 72 h (Trametinib) [nM]	IC50, cell viability 72 h (SN-38) [nM]	IC50, cell viability 72 h (Palbociclib) [nM]	IC50, cell viability 72 h (Crizotinib) [nM]	IC50, cell viability 72 h (Etoposide) [nM]	IC50, cell viability 72 h (AZD5363) [nM]	IC50, cell viability 72 h (AZD7648) [nM]	IC50, cell viability 72 h (Gefitinib) [nM]	IC50, cell viability 72 h (Lapatinib) [nM]	IC50, cell viability 72 h (Savolitinib) [nM]	IC50, cell viability 72 h (AZD4320) [nM]	IC50, cell viability 72 h (Carboplatin) [nM]	IC50, cell viability 72 h (5-Fluorouracil) [nM]	IC50, cell viability 72 h (MK-2206) [nM]	IC50, cell viability 72 h (AZD1775) [nM]	IC50, cell viability 72 h [1] [nM]	IC50, cell viability 72 h (Selumetinib) [nM]	IC50, cell viability 72 h (AZD8186; max 10 µM) [nM]	IC50, cell viability 72 h (Doxorubicin) [nM]	IC50, cell viability 72 h (Capivasertib) [nM]	IC50, cell viability 72 h (AZD8186; max 3 µM) [nM]
PANC-10-05 (Pancreatic Carcinoma)	> 10000	378	1510	> 1	> 300	> 300	> 1000	> 1000	> 1000	> 10000	> 1000	7170	> 10000	> 10000	732	> 3000	438	59.5	> 10000	> 10000	> 10000	> 10000	> 10000	> 10000	> 10000	> 1000	> 1000	> 10000	> 20000	> 10000	1270	3330	> 10000	> 10000	> 1000	–	–
U-2-OS (Osteosarcoma)	5430	162	> 2000	> 1	> 300	> 300	> 1000	> 1000	17.4	> 10000	> 1000	> 10000	> 10000	> 10000	> 1000	> 3000	140	> 300	> 10000	> 10000	> 10000	> 10000	> 10000	> 10000	> 10000	> 1000	> 1000	> 10000	> 20000	> 10000	1080	2130	> 10000	> 10000	> 1000	–	–
NCI-H2591 (Mesothelioma)	–	–	> 2000	> 1	–	> 300	> 1000	> 1000	> 1000	> 10000	> 1000	> 10000	> 10000	> 10000	> 1000	> 3000	> 1000	71.7	> 10000	> 10000	–	–	> 10000	> 10000	> 10000	> 1000	> 1000	–	–	> 10000	> 3000	–	> 10000	–	> 1000	> 10000	> 3000
A3-KAW (B-Cell Non-Hodgkin's Lymphoma)	–	–	> 2000	> 1	–	> 300	> 1000	887	7.37	68.6	21.7	> 10000	8450	355	11.1	1350	997	3.18	1300	3980	–	–	> 10000	> 10000	> 10000	> 1000	> 1000	–	–	–	117	–	> 10000	–	86.3	> 10000	> 3000
COR-L311 (Small Cell Lung Carcinoma)	–	–	> 2000	> 1	–	> 300	208	75.4	107	1510	> 1000	1610	> 10000	> 10000	175	> 3000	> 1000	3.07	> 10000	2970	–	–	> 10000	> 10000	> 10000	> 1000	1.92	–	–	–	910	–	> 10000	–	685	3020	> 3000
HCC1954 (Breast Carcinoma)	–	–	> 2000	> 1	–	> 300	> 1000	> 1000	59.8	> 10000	133	122	> 10000	> 10000	> 1000	> 3000	> 1000	> 300	> 10000	> 10000	–	–	> 10000	> 10000	6260	> 1000	> 1000	–	–	> 10000	1970	–	> 10000	–	> 1000	3240	> 3000
